Results as given in US11208433B2, “Peptide for inhibiting skin inflammation and composition for preventing or treating skin inflammation containing the same” (AVIXGEN Inc., priority 2017, dated 2021).

Columns and labels:
IgE = test: ELISA analysis of serum IgE in atopic dermatitis animal model; conditions: day of autopsy (Day 14)
[1] = system: atopic mouse skin tissues; test: Immunohistochemical staining of atopic mouse skin tissue (angiogenic marker, inflammatory cells, keratin); assay type: in vivo, NC/Nga mouse; conditions: atopic mouse skin tissue, also similar to prednisolone treated group
Method: (§1) After the ear auricle of the NC/Nga mouse was shaved with a razor, the epilating agent was applied in an appropriate amount for the complete depilation. After the epilating agent was wiped off, Then, 100 mg of the AD-inducing reagent shown in Table 2 as below was uniformly applied to the ear auricle using a micropipette tip, thereby inducing atopic dermatitis for the first time.
(§2) After shaving with a razor for necessary, 150 μL of a 4% SDS aqueous solution was uniformly applied to the ear auricle using a micropipette, dried with a cold air using a dryer, and air-dried for about 2 to 3 hours. Then, 100 mg of the same AD-inducing reagent was uniformly applied to the ear auricle using a micropipette tip, thereby inducing atopic dermatitis after 2 times. All treatments were carried out twice a week to be 6 times for a total of 3 weeks, thereby producing atopic dermatitis animal model.
(§3) The mice of groups 2 to 5 were obtained by the atopic dermatitis animal model prepared in Experimental Method 3 as described above.
(§4) The experimental substance and the control substance were uniformly applied to the ear auricle using a micropipette tip. From the day of the experimental substance administration (Day 0) to the day of the autopsy (Day 14), they were administered once a day for 2 weeks.
Atopy mouse skin tissues were immersed in Xylene three times for 5 minutes, 100% ethanol for 2 minutes, 95% ethanol for 2 minutes, 90% ethanol for 2 minutes, 70% ethanol for 2 minutes and D.W. for 2 minutes to remove paraffin and to perform hydration. After washing with PBS, they were treated with 0.2% Triton X-100 to increase cell permeability. After re-washing with PBS, they were reacted with blocking solution, 3% bovine serum albumin, for 1 hour. For inflammatory cells and keratin staining, they were reacted with F4/80 (sc-377009, Santa Cruz) and cytokeratin (NB600-579, NOVUSBIO) antibodies, respectively, at room temperature for 2 hours. After washing with PBS, they were treated with Texas Red (ab6787, Abcam) secondary antibody and reacted at room temperature for 60 minutes. The mounting solution was dropped on the tissue of the slide. Then, the tissue was covered with a cover slide, and the sample was observed under a fluorescence microscope. For analysis of the degree of angiogenesis, the atopic skin tissue was reacted with FITC-conjugated isolectin B4 (L2895, Sigma), a blood vessel marker at room temperature for 2 hours. The mounting solution was dropped on the tissue of the slide. Then, the tissue was covered with a cover slide, and the sample was observed under a fluorescence microscope
The mouse skin tissues stained with the respective markers were photographed using a fluorescence microscope (DMil, Leica, Germany), and fluorescence intensities were quantitatively analyzed using an ImageJ program (NIH, Bethesda, Md., USA).

histamine = test: ELISA analysis of serum histamine in atopic dermatitis animal model; assay type: in vivo, NC/Nga mouse; conditions: day of autopsy (Day 14)
Method: as §1, §2, §3, §4
On the day of the autopsy, blood samples were collected from the abdominal vein using a syringe. The serum isolated from the blood was analyzed for IgE and histamine using an ELISA kit.

[2] = system: atopic dermatitis animal model; test: Histopathological examination of ear epidermis and dermis (H&E scoring); assay type: in vivo, NC/Nga mouse; conditions: infiltration by inflammatory cells, p<0.05, FIGS. 8 and 9
Method: After the ear auricle of the NC/Nga mouse was shaved with a razor, the epilating agent was applied in an appropriate amount for the complete depilation. After the epilating agent was wiped off, Then, 100 mg of the AD-inducing reagent shown in Table 2 as below was uniformly applied to the ear auricle using a micropipette tip, thereby inducing atopic dermatitis for the first time. After shaving with a razor for necessary, 150 μL of a 4% SDS aqueous solution was uniformly applied to the ear auricle using a micropipette, dried with a cold air using a dryer, and air-dried for about 2 to 3 hours. Then, 100 mg of the same AD-inducing reagent was uniformly applied to the ear auricle using a micropipette tip, thereby inducing atopic dermatitis after 2 times. All treatments were carried out twice a week to be 6 times for a total of 3 weeks, thereby producing atopic dermatitis animal model. The mice of groups 2 to 5 were obtained by the atopic dermatitis animal model prepared in Experimental Method 3 as described above. The experimental substance and the control substance were uniformly applied to the ear auricle using a micropipette tip. From the day of the experimental substance administration (Day 0) to the day of the autopsy (Day 14), they were administered once a day for 2 weeks. On the day of the autopsy, ears were removed for the histopathological examination and fixed in 10% neutral buffered formalin solution. The fixed tissues were subject to the general tissue treatment such as reprofiling, dehydration, paraffin embedding, and dissection, thereby preparing specimens for histopathological examination. Then, hematoxylin and eosin (H & E) and TUNEL assays were performed on histopathologic specimens, and the light microscopy (Olympus BX53, Japan) was used to observe histopathologic changes. In the histopathologic evaluation using hematoxylin and eosin staining slides, in order to compare the degree of the lesion with the induced control group, the most severe lesion was selected, and then the hypertrophy, hyperkeratosis and infiltration by inflammatory cells were evaluated in the epidermis. In the dermis, the infiltration by inflammatory cells was evaluated. Scoring criteria are the same as 0 (no symptoms), 1 (mild), 2 (moderate), and 3 (severe) (Taniguchi Y et al 2003).

[3] = system: atopic dermatitis animal model; test: Ear thickness measurement in atopic dermatitis animal model; assay type: in vivo, NC/Nga mouse; conditions: FIG. 2
Method: After the ear auricle of the NC/Nga mouse was shaved with a razor, the epilating agent was applied in an appropriate amount for the complete depilation. After the epilating agent was wiped off, Then, 100 mg of the AD-inducing reagent shown in Table 2 as below was uniformly applied to the ear auricle using a micropipette tip, thereby inducing atopic dermatitis for the first time. After shaving with a razor for necessary, 150 μL of a 4% SDS aqueous solution was uniformly applied to the ear auricle using a micropipette, dried with a cold air using a dryer, and air-dried for about 2 to 3 hours. Then, 100 mg of the same AD-inducing reagent was uniformly applied to the ear auricle using a micropipette tip, thereby inducing atopic dermatitis after 2 times. All treatments were carried out twice a week to be 6 times for a total of 3 weeks, thereby producing atopic dermatitis animal model. The mice of groups 2 to 5 were obtained by the atopic dermatitis animal model prepared in Experimental Method 3 as described above. The experimental substance and the control substance were uniformly applied to the ear auricle using a micropipette tip. From the day of the experimental substance administration (Day 0) to the day of the autopsy (Day 14), they were administered once a day for 2 weeks. Ear thickness was measured for each individual by calipers, and the ear area was photographed. Ear thickness measurement and photographing were performed once a week on the day of starting the experimental substance administration and thereafter.

HeLa cells = test: ACP-tetrapeptide cell membrane permeation experiment; assay type: cell-based; conditions: 3, 15 and 30 μM ACP-tetrapeptide-FITC for 3 hours, fluorescence microscopy, FIG. 14
Method: HeLa cells were inoculated in a 12-well plate containing glass at a density of 1×10^5 cells/well and cultured for 24 hours to attach the cells to the glass. Then, HeLa cells were treated with 3 μM ACP-FITC peptide and 3, 15, and 30 μM ACP-tetrapeptide-FITC peptide for 3 hours. After 3 hours, the cells were washed three times with PBS. Then, the cells were fixed with 3.7% formaldehyde for 20 minutes and treated with PBS containing 0.2% Triton X-100 to increase cell permeability. Then, the cells were blocked with 3% BSA for 1 hour, reacted with a tubulin antibody (Santa Cruz Biotechnology, U.S.A.) at room temperature for 2 hours, and washed three times with PBS. Next, the cells were treated with a Cy3-conjugated secondary antibody (Jackson ImmunoResearch, USA) at room temperature for 1 hour, washed twice with PBS, and then stained with 4′,6-diamidino-2-phenylindole (DAPI) for 10 minutes. Finally, the HeLa cell-attached glass was removed and mounted on a sliding glass. The cells were observed under a fluorescence microscope (DMil, Leica, Germany).

VKCFNCGKEGHTARNCRAPRKKGCWKCGKEGHQMKDCTERLYE (ACP-tetrapeptide) [ACP cell penetrating peptide linked at the N-terminal of the tetrapeptide]
IgE level compared with prednisolone treated group (IgE; FIG. 7): lower than that of the prednisolone treated group | IgE level compared with group 2 (induced control) (IgE; p<0.001 or p<0.01, FIG. 7): significantly lower | IgE level compared with normal control group (IgE; p<0.001 or p<0.01, FIG. 7): significantly higher | angiogenesis (Isolectin B4 staining) ([1]; FIG. 10): lower than that of the inducted control group | inflammatory cell inflow (F4/80 staining) ([1]; FIG. 11): lower than that of the inducted control group | keratinization and fibrosis (cytokeratin staining) ([1]; FIG. 12): lower than that of the inducted control group | histamine level compared with prednisolone treated group (histamine; FIG. 7): lower than that of the prednisolone treated group | histamine level compared with group 2 (induced control) (histamine; p<0.001 or p<0.01, FIG. 7): significantly lower | epidermis score level compared with group 2 ([2]; hypertrophy, hyperkeratosis): significantly lower | dermis score level compared with group 2 [2]: significantly lower | ear thickness compared with induced control group (group 2) ([3]; 7th and 14th day after administration, tetrapeptide 0.622, ACP-tetrapeptide 4.987, prednisolone 50 μg/ear once a day, p<0.001 or p<0.01): significantly thinner | ear thickness compared with normal control group (group 1) ([3]; 14th day after administration, p<0.001): significantly thicker | cell membrane permeability (transfer into cells) (HeLa cells): transferred into the cells through ACP in a concentration-dependent manner without aggregation in the cell membrane
